Patent US20250034216A1, “STEREOSELECTIVE COVALENT LIGANDS FOR ONCOGENIC AND IMMUNOLOGICAL PROTEINS” (The Scripps Research Institute, priority 2021, published 2025)

Tests used:
Assay in all cases: IA-DTB cysteine engagement
Assay type in all cases: binding
Conditions in all cases: 22Rv1 cells, 20 μM probe, 1 h, relative to DMSO
[1] = target: T1, NAPIL1_C132 (Homo sapiens, UniProt P55209)
T1 construct: endogenous in cells; host or cells: 22Rv1
T1 sequence (P55209 1-391): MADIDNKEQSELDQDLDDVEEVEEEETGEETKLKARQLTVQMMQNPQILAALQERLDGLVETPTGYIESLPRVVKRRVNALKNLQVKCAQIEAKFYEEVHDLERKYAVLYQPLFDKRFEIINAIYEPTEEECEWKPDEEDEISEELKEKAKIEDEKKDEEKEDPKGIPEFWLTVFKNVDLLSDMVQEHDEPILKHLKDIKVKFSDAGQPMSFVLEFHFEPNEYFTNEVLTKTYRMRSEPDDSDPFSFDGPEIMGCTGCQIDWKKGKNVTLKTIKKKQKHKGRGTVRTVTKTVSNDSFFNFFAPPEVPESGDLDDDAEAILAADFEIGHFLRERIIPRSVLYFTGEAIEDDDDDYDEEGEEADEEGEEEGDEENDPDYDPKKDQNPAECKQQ
Procedure, shortened: (§1)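 Read-out is TMT-based cysteine engagement, expressed as each reporter ion intensity divided by the average of the DMSO channels. Before that, probe-treated cell lysates were capped with IA-DTB, digested, enriched on streptavidin and TMT-tagged. PSMs with DMSO summed intensity <10,000 or DMSO CV >0.5 were excluded.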

[2] = target: T2, HMOX2_C265 (Homo sapiens, UniProt P30519)
T2 construct: endogenous in cells; host or cells: 22Rv1
T2 sequence (P30519 1-316): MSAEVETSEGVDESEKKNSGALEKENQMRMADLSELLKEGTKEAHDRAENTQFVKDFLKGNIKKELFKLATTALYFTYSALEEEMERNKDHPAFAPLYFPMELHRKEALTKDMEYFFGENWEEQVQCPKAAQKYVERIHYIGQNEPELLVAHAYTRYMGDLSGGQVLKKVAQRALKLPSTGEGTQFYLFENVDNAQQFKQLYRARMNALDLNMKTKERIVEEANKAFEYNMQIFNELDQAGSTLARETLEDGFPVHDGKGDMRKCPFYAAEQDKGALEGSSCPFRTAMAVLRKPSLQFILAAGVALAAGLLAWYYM
Procedure, shortened: as §1

[3] = target: T3, NT5DC1_C119 (Homo sapiens, UniProt Q5TFE4)
T3 construct: endogenous in cells; host or cells: 22Rv1
T3 sequence (Q5TFE4 1-455): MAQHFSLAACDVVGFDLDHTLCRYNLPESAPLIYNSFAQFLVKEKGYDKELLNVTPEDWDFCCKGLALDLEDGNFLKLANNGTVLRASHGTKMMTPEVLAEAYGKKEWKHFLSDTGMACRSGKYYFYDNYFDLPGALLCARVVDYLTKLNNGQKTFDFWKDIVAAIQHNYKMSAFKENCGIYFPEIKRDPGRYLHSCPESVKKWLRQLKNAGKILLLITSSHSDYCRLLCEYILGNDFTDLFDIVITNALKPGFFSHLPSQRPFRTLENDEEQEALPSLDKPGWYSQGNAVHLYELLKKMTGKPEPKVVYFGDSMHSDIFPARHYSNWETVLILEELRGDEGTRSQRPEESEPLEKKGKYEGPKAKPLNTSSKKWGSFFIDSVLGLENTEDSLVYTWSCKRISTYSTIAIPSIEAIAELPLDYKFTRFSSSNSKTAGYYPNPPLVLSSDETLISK
Procedure, shortened: as §1

SMILES | % engagement NAPIL1_C132 [1] [%] | % engagement HMOX2_C265 [2] [%] | % engagement NT5DC1_C119 [3] [%]
C=CC(=O)N1C[C@H](c2ccc(Br)cc2)[C@@H]1C(=O)Nc1cccc2cccnc12 [MY-1B, (2R,3S)-1-acryloyl-3-(4-bromophenyl)-N-(quinolin-8-yl)azetidine-2-carboxamide] | 6 | 73.5 | 63.25
C=CC(=O)N1C[C@H](c2ccc(Br)cc2)[C@H]1C(=O)Nc1cccc2cccnc12 [MY-3B, (2S,3S)-1-acryloyl-3-(4-bromophenyl)-N-(quinolin-8-yl)azetidine-2-carboxamide] | 80 | 79.5 | 79.5
C=CC(=O)N1C[C@H](c2ccc(Br)cc2)[C@H]1C(=O)Nc1cccc2cccnc12 [MY-3A, (2S,3S)-1-acryloyl-3-(4-bromophenyl)-N-(quinolin-8-yl)azetidine-2-carboxamide] | 25 | 71.75 | 93.5
C=CC(=O)N1C[C@@H](c2ccc(Br)cc2)[C@H]1C(=O)Nc1cccc2cccnc12 [MY-1A, (2S,3R)-1-acryloyl-3-(4-bromophenyl)-N-(quinolin-8-yl)azetidine-2-carboxamide] | −21.5 | 72.5 | 49
